Assay results taken from patent US4753953A, “Pyridonecarboxylic acid derivatives and antibacterial pharmaceutical compositions thereof” (priority 1985, dated 1988).
≈ marks a conversion by molar mass, not a printed value. Like-named read-outs stand apart in the source and are kept apart here.

Assays:
Assay in all cases: MIC, in vitro antibacterial activity (standard strains)
S. aureus Smith = format: cell-based, Staphylococcus aureus; conditions: Staphylococcus aureus; 10^6 cells/ml; Gram +; read-out: MIC
[1] = system: Bacteroides fragilis GM 7000; format: cell-based; conditions: Bacteroides fragilis, GM7000; 10^6 cells/ml; Gram -; read-out: MIC
B. vulgatus KYA 29327 = format: cell-based; conditions: Phocaeicola vulgatus, KYA29327; 10^6 cells/ml; Gram -; read-out: MIC
[2] = system: Bacillus subtilis PCI 219; format: cell-based; conditions: Bacillus subtilis, PCI219; 10^6 cells/ml; Gram +; read-out: MIC
Pst. micros UPI 5464-1 = format: cell-based; conditions: Parvimonas micra, UPI54641; 10^6 cells/ml; Gram +; read-out: MIC
[3] = system: Salmonella enteritidis IID 604; format: cell-based; conditions: Salmonella enterica; 10^6 cells/ml; Gram -; read-out: MIC
S. epidermidis IID 866 = format: cell-based; conditions: Staphylococcus epidermidis, IID866; 10^6 cells/ml; Gram +; read-out: MIC
B. distasonis 8503 = format: cell-based; conditions: Parabacteroides distasonis, 8503; 10^6 cells/ml; Gram -; read-out: MIC
C. ramosum = format: cell-based; conditions: Thomasclavelia ramosa; 10^6 cells/ml; Gram +; read-out: MIC
F. varium KYA 8501 = format: cell-based; conditions: Fusobacterium varium, KYA8501; 10^6 cells/ml; Gram -; read-out: MIC
B. fragilis 25285 = format: cell-based, Bacteroides fragilis; conditions: Bacteroides fragilis, 25285; 10^6 cells/ml; Gram -; read-out: MIC
[4] = system: Clostridium difficile I-E; format: cell-based; conditions: Clostridioides difficile; 10^6 cells/ml; Gram +
K. pneumoniae 1-220S = format: cell-based, Klebsiella pneumoniae; conditions: Klebsiella pneumoniae, 1220S; 10^6 cells/ml; Gram -; read-out: MIC
[5] = system: Pseudomonas aeruginosa V-1; format: cell-based; conditions: Pseudomonas aeruginosa, V1
S. pneumoniae IID 552 = format: cell-based; conditions: Streptococcus pneumoniae, IID552; 10^6 cells/ml; Gram +; read-out: MIC
[6] = system: Proteus vulgaris IFO 3167; format: cell-based; conditions: Proteus vulgaris, IFO3167; 10^6 cells/ml; Gram -; read-out: MIC
P. aeruginosa IID 1210 = format: cell-based, Pseudomonas aeruginosa; conditions: Pseudomonas aeruginosa, IID1210; 10^6 cells/ml; Gram -; read-out: MIC
P. mirabilis IID 994 = format: cell-based; conditions: Proteus mirabilis, IID994; 10^6 cells/ml; Gram -; read-out: MIC
[7] = system: Morganella morganii IID 602; format: cell-based; conditions: Morganella morganii, IID602; 10^6 cells/ml; Gram -; read-out: MIC
E. faecalis IID 682 = format: cell-based; conditions: Enterococcus faecalis, IID682; 10^6 cells/ml; Gram +; read-out: MIC
[8] = system: Citrobacter freundii IID 976; format: cell-based; conditions: Citrobacter freundii, IID976; 10^6 cells/ml; Gram -; read-out: MIC
[9] = system: B. thetaiotaomicron (0661); format: cell-based; conditions: Bacteroides thetaiotaomicron; 10^6 cells/ml; Gram -; read-out: MIC
P. maltophilia GIFU 2491 = format: cell-based; conditions: Stenotrophomonas maltophilia, GIFU2491; 10^6 cells/ml; Gram -; read-out: MIC
[10] = system: Veillonella parvula KYA 10790; format: cell-based; conditions: Veillonella parvula, KYA10790; 10^6 cells/ml; Gram -; read-out: MIC
E. coli ATCC 10536 = format: cell-based, Escherichia coli; conditions: Escherichia coli, ATCC10536; 10^6 cells/ml; Gram -; read-out: MIC
[11] = system: Fusobacterium mortiferum 4249; format: cell-based; conditions: Fusobacterium mortiferum, 4249; 10^6 cells/ml; Gram -; read-out: MIC
[12] = system: S. aureus IID 670 (Terajima); format: cell-based, Staphylococcus aureus; conditions: Staphylococcus aureus, IID670; 10^6 cells/ml; Gram +; read-out: MIC
S. pyogenes IID 692 = format: cell-based, Streptococcus pyogenes; conditions: Streptococcus pyogenes, IID692; 10^6 cells/ml; Gram +; read-out: MIC
[13] = system: Streptococcus pyogenes (S-8); format: cell-based; conditions: Streptococcus pyogenes; 10^6 cells/ml; Gram +; read-out: MIC
[14] = system: Escherichia coli NIHJ JC-2; format: cell-based; conditions: Escherichia coli, NIHJJC2; 10^6 cells/ml; Gram -; read-out: MIC
[15] = system: Klebsiella pneumoniae KY(GN)6445; format: cell-based; conditions: Klebsiella pneumoniae; 10^6 cells/ml; Gram -; read-out: MIC
[16] = system: Peptostreptococcus anaerobius KYA 27337; format: cell-based; conditions: Peptostreptococcus anaerobius, KYA27337; 10^6 cells/ml; Gram +; read-out: MIC
[17] = 10^6 cells/ml, Gram -, read-out: MIC

Compound	MIC (S. aureus Smith)	MIC [1]	MIC (B. vulgatus KYA 29327)	MIC [2]	MIC (Pst. micros UPI 5464-1)	MIC [3]	MIC (S. epidermidis IID 866)	MIC (C. ramosum)	MIC (F. varium KYA 8501)	MIC (B. fragilis 25285)	MIC [4]	MIC (K. pneumoniae 1-220S)	MIC (S. pneumoniae IID 552)	MIC [6]	MIC (P. aeruginosa IID 1210)	MIC (P. mirabilis IID 994)	MIC [7]	MIC (E. faecalis IID 682)	MIC [8]	MIC [9]	further results
CNCC1CN(c2c(F)cc3c(=O)c(C(=O)O)cn(C4CC4)c3c2Cl)CC1C (stereo not drawn) [Example 12, 8-Chloro-1-cyclopropyl-6-fluoro-1,4-dihydro-7-(3-methylaminomethyl-4-methyl-1-pyrrolidinyl)-4-oxo-3-quinolinecarboxylic acid]	0.05 µg/mL (≈ 0.123 µM)	0.2 µg/mL (≈ 0.49 µM)	0.2 µg/mL (≈ 0.49 µM)	0.0125 µg/mL (≈ 0.0306 µM)	0.39 µg/mL (≈ 0.956 µM)	0.1 µg/mL (≈ 0.245 µM)	0.05 µg/mL (≈ 0.123 µM)	0.39 µg/mL (≈ 0.956 µM)	0.78 µg/mL (≈ 1.91 µM)	0.1 µg/mL (≈ 0.245 µM)	0.2 µg/mL	0.1 µg/mL (≈ 0.245 µM)	0.05 µg/mL (≈ 0.123 µM)	0.05 µg/mL (≈ 0.123 µM)	1.56 µg/mL (≈ 3.82 µM)	0.2 µg/mL (≈ 0.49 µM)	0.2 µg/mL (≈ 0.49 µM)	0.05 µg/mL (≈ 0.123 µM)	0.05 µg/mL (≈ 0.123 µM)	0.39 µg/mL (≈ 0.956 µM)	MIC (B. distasonis 8503): 0.39 µg/mL (≈ 0.956 µM); MIC [5, 17]: 0.39 µg/mL (≈ 0.956 µM); MIC (P. maltophilia GIFU 2491): 0.2 µg/mL (≈ 0.49 µM); MIC [10]: 0.39 µg/mL (≈ 0.956 µM); MIC (E. coli ATCC 10536): 0.05 µg/mL (≈ 0.123 µM); MIC [11]: 0.2 µg/mL (≈ 0.49 µM); MIC [12]: 0.0125 µg/mL (≈ 0.0306 µM); MIC (S. pyogenes IID 692): 0.05 µg/mL (≈ 0.123 µM); MIC [13]: 0.05 µg/mL (≈ 0.123 µM); MIC [14]: 0.05 µg/mL (≈ 0.123 µM); MIC [15]: 0.05 µg/mL (≈ 0.123 µM); MIC [16]: 0.05 µg/mL (≈ 0.123 µM)
C[C@H]1CN(c2c(F)cc3c(=O)c(C(=O)O)cn4c3c2OC[C@@H]4C)C[C@H]1N.Cl (mixture of isomers) [Example 31, (3S)-10-(cis-3-Amino-4-methyl-1-pyrrolidinyl)-9-fluoro-2,3-dihydro-3-methyl-7-oxo-7H-pyrido[1,2,3-de][1,4]benzoxazine-6-carboxylic acid hydrochloride]	0.2 µg/mL	1.56 µg/mL	3.13 µg/mL	0.05 µg/mL	0.2 µg/mL	0.1 µg/mL	0.2 µg/mL	6.25 µg/mL	3.13 µg/mL	0.78 µg/mL	3.13 µg/mL	0.1 µg/mL	0.2 µg/mL	0.1 µg/mL	3.13 µg/mL	0.1 µg/mL	0.2 µg/mL	0.2 µg/mL	0.05 µg/mL	3.13 µg/mL	MIC [5, 17]: 0.39 µg/mL; MIC (P. maltophilia GIFU 2491): 0.78 µg/mL; MIC [10]: 0.2 µg/mL; MIC (E. coli ATCC 10536): 0.025 µg/mL; MIC [11]: 0.39 µg/mL; MIC [12]: 0.2 µg/mL; MIC (S. pyogenes IID 692): 0.2 µg/mL; MIC [13]: 0.2 µg/mL; MIC [14]: 0.025 µg/mL; MIC [15]: 0.05 µg/mL; MIC [16]: 0.39 µg/mL
C[C@H]1CN(c2c(F)cc3c(=O)c(C(=O)O)cn(CCF)c3c2F)C[C@H]1N (relative stereo) [Example 25, 7-(cis-b 3-Amino-4-methyl-1-pyrrolidinyl)-6,8-difluoro-1-(2-fluoroethyl)-1,4-dihydro-4-oxo-3-quinolinecarboxylic acid]	0.39 µg/mL (≈ 1.06 µM)	6.25 µg/mL (≈ 16.9 µM)	6.25 µg/mL (≈ 16.9 µM)	0.1 µg/mL (≈ 0.271 µM)	0.78 µg/mL (≈ 2.11 µM)	0.1 µg/mL (≈ 0.271 µM)	0.39 µg/mL (≈ 1.06 µM)	25 µg/mL (≈ 67.7 µM)	6.25 µg/mL (≈ 16.9 µM)	3.13 µg/mL (≈ 8.47 µM)	6.25 µg/mL	0.2 µg/mL (≈ 0.542 µM)	0.78 µg/mL (≈ 2.11 µM)	0.05 µg/mL (≈ 0.135 µM)	6.25 µg/mL (≈ 16.9 µM)	0.1 µg/mL (≈ 0.271 µM)	0.1 µg/mL (≈ 0.271 µM)	0.78 µg/mL (≈ 2.11 µM)	0.1 µg/mL (≈ 0.271 µM)	6.25 µg/mL (≈ 16.9 µM)	MIC (B. distasonis 8503): 6.25 µg/mL (≈ 16.9 µM); MIC [5]: 0.78 µg/mL (≈ 2.11 µM); MIC (P. maltophilia GIFU 2491): 1.56 µg/mL (≈ 4.22 µM); MIC [10]: 0.78 µg/mL (≈ 2.11 µM); MIC (E. coli ATCC 10536): 0.05 µg/mL (≈ 0.135 µM); MIC [11]: 3.13 µg/mL (≈ 8.47 µM); MIC [12]: 0.39 µg/mL (≈ 1.06 µM); MIC (S. pyogenes IID 692): 0.78 µg/mL (≈ 2.11 µM); MIC [13]: 0.78 µg/mL (≈ 2.11 µM); MIC [14]: 0.05 µg/mL (≈ 0.135 µM); MIC [15]: 0.1 µg/mL (≈ 0.271 µM); MIC [16]: 3.13 µg/mL (≈ 8.47 µM)
CC1COc2c(N3C[C@@H](N)[C@@H](C)C3)c(F)cc3c(=O)c(C(=O)O)cn1c23.Cl (relative stereo) [Example 29, 10-(cis-3-Amino-4-methyl-1-pyrrolidinyl)-9-fluoro-2,3-dihydro-3-methyl-7-oxo-7H-pyrido[1,2,3-de][1,4]benzoxazine-6-carboxylic acid hydrochloride]	0.2 µg/mL	3.13 µg/mL	6.25 µg/mL	0.05 µg/mL	0.39 µg/mL	0.1 µg/mL	0.2 µg/mL	12.5 µg/mL	6.25 µg/mL	1.56 µg/mL	6.25 µg/mL	0.2 µg/mL	0.39 µg/mL	0.05 µg/mL	6.25 µg/mL	0.1 µg/mL	0.2 µg/mL	0.39 µg/mL	0.1 µg/mL	6.25 µg/mL	MIC [5, 17]: 0.39 µg/mL; MIC (P. maltophilia GIFU 2491): 1.56 µg/mL; MIC [10]: 0.39 µg/mL; MIC (E. coli ATCC 10536): 0.05 µg/mL; MIC [11]: 0.78 µg/mL; MIC [12]: 0.39 µg/mL; MIC (S. pyogenes IID 692): 0.39 µg/mL; MIC [13]: 0.39 µg/mL; MIC [14]: 0.025 µg/mL; MIC [15]: 0.05 µg/mL; MIC [16]: 1.56 µg/mL
